One block for each molecule: values may come before it.
What was measured:
[1] = method code SF-RC, from DOI: 10.1021/es60170a013
[2] = method code SF-HPLC, from DOI: 10.1002/jlac.1995199512305
[3] = method code SF-AS, from DOI: 10.1211/0022357001777513, PMID: 11186244; settings: pH 7.3
[4] = method code SF-AS, from DOI: 10.1021/jm00371a026, PMID: 6425501; settings: pH 7.4
[5] = not given; remark: listed apart in the source
[6] = not given; remark: listed apart in the source
[7] = method code SF-AS, from DOI: 10.1016/0048-3575(88)90061-2
[8] = method code SF-HPLC, from DOI: 10.1016/0378-5173(92)90116-j; settings: pH 7.4
[9] = method code SF-AS, from DOI: 10.1006/pest.1994.1014
[10] = method code SF-AS, from Kourounakis, P.; Chilliard, N. (1983). Ionization constants and partition coefficients of some 1,1-diphenyl-1-alkoxy-3-dialkylamino-2-propanones with analgesic activity. Pharmazie, 38(6)388-389.; settings: pH 7.4
[11] = method code SF-HPLC, from DOI: 10.1002/etc.5620081103
[12] = not given; remark: listed apart in the source
[13] = method code SF-AS, from DOI: 10.1021/jm00197a006, PMID: 533877
[14] = method code SF-GLC, from DOI: 10.1016/s0045-6535(02)00841-x, PMID: 12615110
[15] = method code SF, from Kruglik, P.; Leschev, M.; Rakhman'ko, M.; Bubel, N.; Asratyan, V. (1991). Extraction of 1,2,4-triazole and its derivatives by organic solvents. 64(8)1721-1724.
[16] = method code SF-AS, from DOI: 10.1080/10826076.2011.619030
[17] = not given; remark: listed apart in the source
[18] = not given; remark: listed apart in the source
[19] = method code SF-GLC, from DOI: 10.1016/0166-445x(88)90052-5
[20] = method code SF, from DOI: 10.1080/09553008714551831, PMID: 3497891; settings: pH 7.4

SMILES: Oc1ccc(Cl)c(O)c1
logP [1]: 1.8

SMILES: CO[C@@]12[C@H](COC(N)=O)C3=C(C(=O)C(C)=C(Nc4nc(C)c(C)s4)C3=O)N1C[C@@H]1N[C@@H]12
logD [4]: 1.29

SMILES: COCC(c1c(O)c2ccccc2oc1=O)c1c(O)c2ccccc2oc1=O
logP [6]: 1.38

SMILES: O=c1oc2ccccc2c(O)c1C(c1ccccc1)c1c(O)c2ccccc2oc1=O
logP [6]: 1.95

SMILES: CC(C)(C)N(NC(=O)c1cccc(F)c1)C(=O)c1ccccc1Cl
logP [9]: 2.88

SMILES: CCOC1OC2OC3(C)CCC4C(OC5OC(C(=O)O)C(O)C(O)C5O)CCC(C1C)C24OO3 (centres undefined)
logP [12]: 1.05

SMILES: Brc1ccc(Oc2ccc(Br)cc2Br)c(Br)c1
logP [14]: 6.81

SMILES: O=[N+]([O-])c1nc[nH]n1
logP [15]: -0.41

SMILES: Brc1ccc(Oc2c(Br)cc(Br)cc2Br)c(Br)c1
logP [14]: 7.24

SMILES: CCOC(=O)C(c1c(O)c2ccccc2oc1=O)c1c(O)c2ccccc2oc1=O
logP [6]: 1.32

SMILES: CC1(C)OC2C(COC3CC(O)C(O)C(CO)O3)OC(n3ccc(=O)[nH]c3=O)C2O1 (centres undefined)
logP [16]: -1.56

SMILES: Cn1cnc([N+](=O)[O-])n1
logP [15]: -0.45

SMILES: ClCCCl
logP [18]: 1.55

SMILES: CC(C)(C)N(NC(=O)c1ccccc1F)C(=O)c1ccccc1Cl
logP [9]: 2.63

SMILES: CO[C@@]12[C@H](COC(N)=O)C3=C(C(=O)C(C)=C(Nc4ccc(C)nc4)C3=O)N1C[C@@H]1N[C@@H]12
logD [4]: 0.59

SMILES: CO[C@@]12[C@@H]3N[C@@H]3CN1C1=C(C(=O)C(Nc3nc(C)cs3)=C(C)C1=O)[C@@H]2COC(N)=O
logD [4]: 1.16

SMILES: CCCOC(C(=O)CN(C)C)(c1ccccc1)c1ccccc1
logD [10]: 1.73

SMILES: OCC1CO1 (centres undefined)
logP [19]: -0.95

SMILES: CC(Cl)CCl (centres undefined)
logP [18]: 1.98

SMILES: ClC(Cl)Cl
logP [1]: 1.9

SMILES: ClC=C(Cl)Cl
logP [18]: 2.67

SMILES: ClC(Cl)C(Cl)Cl
logP [1]: 2.39

SMILES: BrCC1CO1 (centres undefined)
logP [19]: 0.85

SMILES: O=C(O)CCCC[C@@H]1SC[C@@H]2NC(=O)N[C@@H]21
logP [17]: 0.39

SMILES: CCCn1cnc([N+](=O)[O-])n1
logP [15]: 0.22

SMILES: Brc1cc(Br)c(Oc2cc(Br)c(Br)cc2Br)c(Br)c1
logP [14]: 7.82

SMILES: CC(=O)OCCN(CCC#N)c1ccc(/N=N/c2nc3ccc([N+](=O)[O-])cc3s2)cc1
logP [11]: 4.6

SMILES: CO[C@@]12[C@H](COC(N)=O)C3=C(C(=O)C(C)=C(Nc4ccccc4)C3=O)N1C[C@@H]1N[C@@H]12
logD [4]: 1.3

SMILES: COCC(O)Cn1ncc([N+](=O)[O-])n1 (centres undefined)
logD [20]: -0.1

SMILES: Nc1ncc([N+](=O)[O-])s1
logD [20]: 0.89

SMILES: CCC(c1c(O)c2ccccc2oc1=O)c1c(O)c2ccccc2oc1=O
logP [6]: 2.02

SMILES: CC1CCC2C(C)C(OC3OC(C(=O)O)C(O)C(O)C3O)OC3OC4(C)CCC1C32OO4 (centres undefined)
logP [12]: 1.08

SMILES: CCOC1OC2OC3(C)C=C(O)C4C(C)CCC(C1C)C24OO3 (centres undefined)
logP [12]: 2.7

SMILES: ClCC1CO1 (centres undefined)
logP [19]: 0.45

SMILES: CC(C)(C)N(NC(=O)c1cccc(Cl)c1)C(=O)c1ccccc1Cl
logP [9]: 3.49

More lines, now with the values ahead:

logP [2]: 1.45
SMILES: Cc1cn(C2CC(N=[N+]=[N-])C(COP(=O)(OCC3OC(n4cc(C)c(=O)[nH]c4=O)CC3N=[N+]=[N-])C(O)c3ccc(Cl)cc3)O2)c(=O)[nH]c1=O (centres undefined)

logD [3]: 2.61
SMILES: OCC(O)COc1c(F)cc(-c2c3nc(c(-c4cc(F)c(OCC(O)CO)c(F)c4)c4ccc([nH]4)c(-c4cc(F)c(OCC(O)CO)c(F)c4)c4nc(c(-c5cc(F)c(OCC(O)CO)c(F)c5)c5ccc2[nH]5)C=C4)C=C3)cc1F (centres undefined)

logP: 0.68
SMILES: CC(=O)C1(O)Cc2c(O)c3c(c(O)c2C(OC2CC(N)C(O)C(C)O2)C1)C(=O)c1ccccc1C3=O (centres undefined)

logD [3]: 4.83
SMILES: OCC(O)COc1cccc(-c2c3nc(c(-c4cccc(OCC(O)CO)c4)c4ccc([nH]4)c(-c4cccc(OCC(O)CO)c4)c4nc(c(-c5cccc(OCC(O)CO)c5)c5ccc2[nH]5)C=C4)C=C3)c1 (centres undefined)

logP [5]: -0.61
SMILES: COCCO

logP [7]: 2.8
SMILES: O=C(NC(=O)c1c(F)cccc1F)Nc1ccc(Oc2ccc(C(F)(F)F)cn2)cc1

logD [8]: 1.99
SMILES: CCC(C(=O)OCc1cccc(COC(=O)C(CC)C(CO)Cc2cncn2C)c1)C(CO)Cc1cncn1C (centres undefined)

logD [10]: 0.7
SMILES: C#CCOC(C(=O)CN(C)C)(c1ccccc1)c1ccccc1

logP [2]: 0.94
SMILES: Cc1cn(C2CC(N=[N+]=[N-])C(COP(=O)(OCC3OC(n4cc(C)c(=O)[nH]c4=O)CC3N=[N+]=[N-])C(O)c3ccc([N+](=O)[O-])cc3[N+](=O)[O-])O2)c(=O)[nH]c1=O (centres undefined)

logD [8]: 0.68
SMILES: CCC(C(=O)OCCCOC(=O)C(CC)C(CO)Cc1cncn1C)C(CO)Cc1cncn1C (centres undefined)

logP [11]: 5.4
SMILES: C=CCN(CCC#N)c1cc(NC(C)=O)c(/N=N/c2c(Br)cc([N+](=O)[O-])cc2[N+](=O)[O-])cc1OC

logP [13]: 1.29
SMILES: Cc1nsc(C=NO)n1

logD [8]: 1.84
SMILES: CCC(C(=O)OCCCCCCOC(=O)C(CC)C(CO)Cc1cncn1C)C(CO)Cc1cncn1C (centres undefined)

logP [9]: 3.11
SMILES: Cc1cccc(C(=O)NN(C(=O)c2ccccc2Cl)C(C)(C)C)c1

logP [2]: 0.83
SMILES: Cc1cn(C2CC(N=[N+]=[N-])C(COP(=O)(OCC3OC(n4cc(C)c(=O)[nH]c4=O)CC3N=[N+]=[N-])C(O)c3ccc([N+](=O)[O-])cc3)O2)c(=O)[nH]c1=O (centres undefined)

logP [5]: -0.1
SMILES: C=CCOCCO

logD [10]: 1.08
SMILES: CCOC(C(=O)CN1CCOCC1)(c1ccccc1)c1ccccc1

logP [17]: -1.69
SMILES: CC(C)(CO)[C@@H](O)C(=O)NCCC(=O)O

logP [5]: 0.75
SMILES: CC(C)COCCO

logP [13]: 0.86
SMILES: O/N=C/c1cnns1

logP [11]: 5
SMILES: O=C1C(c2nc3ccccc3cc2O)=C(O)c2ccccc21

logP [7]: 3.5
SMILES: O=C(NC(=O)c1c(F)cccc1F)Nc1ccc(Oc2ncc(Cl)cc2C(F)(F)F)cc1

logP [16]: 0.59
SMILES: CC1(C)OC2C(COC3CC(O)C(O)C(CO)O3)OC(n3ccc(=O)n(Cc4ccccc4)c3=O)C2O1 (centres undefined)

logP [17]: 7.41
SMILES: CC(C=CC1=C(C)C=CCC1(C)C)=CC=CC(C)=CCO

logD [8]: 1.16
SMILES: CCC(C(=O)OCCCCOC(=O)C(CC)C(CO)Cc1cncn1C)C(CO)Cc1cncn1C (centres undefined)

logD [3]: 2.65
SMILES: OCC(O)COc1cccc(-c2c3nc(c(-c4cccc(OCC(O)CO)c4F)c4ccc([nH]4)c(-c4cccc(OCC(O)CO)c4F)c4nc(c(-c5cccc(OCC(O)CO)c5F)c5ccc2[nH]5)C=C4)C=C3)c1F (centres undefined)

logP [13]: 0.78
SMILES: Cc1nnc(/C=N/O)s1

logD [3]: 4.77
SMILES: Oc1ccc(-c2c3nc(c(-c4ccc(O)cc4)c4ccc([nH]4)c(-c4ccc(O)cc4)c4nc(c(-c5ccc(O)cc5)c5ccc2[nH]5)C=C4)C=C3)cc1

logD [10]: 0.85
SMILES: CC#CCOC(C(=O)CN(C)C)(c1ccccc1)c1ccccc1

logD [20]: -0.47
SMILES: COCC(O)Cn1cnc([N+](=O)[O-])n1 (centres undefined)

logP: 0.01
SMILES: COc1cccc2c1C(=O)c1c(O)c3c(c(O)c1C2=O)C[C@@](O)(C(=O)CO)C[C@@H]3O[C@H]1C[C@H](N)C[C@H](C)O1

logP [16]: 0.13
SMILES: CC1(C)OC2C(COC3CC(O)C(O)C(CO)O3)OC(n3ccc(=O)n(C(=O)c4ccccc4)c3=O)C2O1 (centres undefined)

logP [7]: 3.53
SMILES: O=C(NC(=O)c1c(F)cccc1F)Nc1ccc(Oc2ncc(C(F)(F)F)cc2Cl)cc1

logP [7]: 1.57
SMILES: O=C(NC(=O)c1c(F)cccc1F)Nc1ccc(Oc2ccccn2)cc1

logP: 0.96
SMILES: CC(=O)C1(O)Cc2c(O)c3c(c(O)c2C(OC2CC(N)C(O)C(C)O2)C1)C(=O)c1c(O)cccc1C3=O (centres undefined)

logP [11]: 4.8
SMILES: COc1cc(N=Nc2c(Br)cc([N+](=O)[O-])cc2Br)c(NC(C)=O)cc1N(CCOC(C)=O)CCOC(C)=O

logP: 0.39
SMILES: COC1C(N)CC(OC2CC(O)(C(=O)CO)Cc3c(O)c4c(c(O)c32)C(=O)c2ccccc2C4=O)OC1C (centres undefined)

logP [16]: 1.29
SMILES: CC1(C)OC2C(COC(=O)c3ccccc3)OC(n3ccc(=O)[nH]c3=O)C2O1 (centres undefined)

logP [2]: 0.72
SMILES: COc1ccc(C(O)P(=O)(OCC2OC(n3cc(C)c(=O)[nH]c3=O)CC2N=[N+]=[N-])OCC2OC(n3cc(C)c(=O)[nH]c3=O)CC2N=[N+]=[N-])cc1 (centres undefined)

— the SangsterLogP compilation
